Molecular target: Rv2623 (Mycobacterium tuberculosis, UniProt P9WFD7)
Sequence (P9WFD7 whole entry): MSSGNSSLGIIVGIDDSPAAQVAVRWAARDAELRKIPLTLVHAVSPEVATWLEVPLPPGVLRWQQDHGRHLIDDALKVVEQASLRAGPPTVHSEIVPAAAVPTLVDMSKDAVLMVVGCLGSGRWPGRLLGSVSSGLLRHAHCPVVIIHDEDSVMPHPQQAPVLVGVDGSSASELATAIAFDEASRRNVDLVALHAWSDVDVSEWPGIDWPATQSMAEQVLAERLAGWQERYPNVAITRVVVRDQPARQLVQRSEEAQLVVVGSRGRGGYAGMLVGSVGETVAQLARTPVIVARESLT

Nc1ncnc2c1ncn2[C@@H]1O[C@H](COP(=O)(O)OP(=O)(O)O)[C@@H](O)[C@H]1O [ADP]
HPLC of nucleotide extracted from purified protein by boiling: His6-Rv2623 co-purifies with both ATP and ADP

— publication PMC2682197, “Mycobacterium tuberculosis Universal Stress Protein Rv2623 Regulates Bacillary Growth by ATP-Binding: Requirement for Establishing Chronic Persistent Infection” (PLoS Pathogens, 2009)
